This is an account of results in ChEMBL document CHEMBL1201862, “PubChem BioAssay data set” (2004).

The structures appear in SMILES notation. The source made the active and inactive calls.

The target in assay [1] is T1, High affinity choline transporter 1 (Homo sapiens, UniProt Q9GZV3).
T1 sequence (Q9GZV3 whole entry): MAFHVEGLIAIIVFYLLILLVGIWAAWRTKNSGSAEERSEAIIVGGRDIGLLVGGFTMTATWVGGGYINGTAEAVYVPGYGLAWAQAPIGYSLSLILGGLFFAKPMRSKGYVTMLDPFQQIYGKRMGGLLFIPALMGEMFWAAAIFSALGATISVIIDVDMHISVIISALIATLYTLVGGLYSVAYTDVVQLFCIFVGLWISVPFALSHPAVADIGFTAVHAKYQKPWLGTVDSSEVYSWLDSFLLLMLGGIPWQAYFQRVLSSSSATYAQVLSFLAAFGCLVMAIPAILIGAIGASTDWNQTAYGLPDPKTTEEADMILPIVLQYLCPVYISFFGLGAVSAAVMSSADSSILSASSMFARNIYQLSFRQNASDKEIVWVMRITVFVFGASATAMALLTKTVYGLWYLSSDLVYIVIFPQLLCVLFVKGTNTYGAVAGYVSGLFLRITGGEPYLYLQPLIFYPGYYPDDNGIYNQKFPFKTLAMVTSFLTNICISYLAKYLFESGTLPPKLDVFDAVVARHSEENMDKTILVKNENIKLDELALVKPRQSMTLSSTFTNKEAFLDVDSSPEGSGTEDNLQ
In words: human choline transporter potentiators, potency – cell-based, 10-point CRC, membrane potential dye, dose response (AID 602376). It is filed as functional.

Assay [2] in a line: HEK-293T cell viability reduction – luminescence, B-cell screen hits, cytotoxicity control for BCR NF-kB inhibitor project, dose response (AID 489021).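 Note: HEK-293T cells carrying an NF-kB luciferase reporter; cells exposed to compound for about 14 hours before viability readout.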 Type of assay: functional, cell-based.
The target in assay [3] is Luciferin 4-monooxygenase (Photinus pyralis, UniProt P08659). In words: inhibition of purified Photinus pyralis luciferase – biochemical, luminescence, dose response (AID 1891).
Chain of Luciferin 4-monooxygenase (P08659 whole entry): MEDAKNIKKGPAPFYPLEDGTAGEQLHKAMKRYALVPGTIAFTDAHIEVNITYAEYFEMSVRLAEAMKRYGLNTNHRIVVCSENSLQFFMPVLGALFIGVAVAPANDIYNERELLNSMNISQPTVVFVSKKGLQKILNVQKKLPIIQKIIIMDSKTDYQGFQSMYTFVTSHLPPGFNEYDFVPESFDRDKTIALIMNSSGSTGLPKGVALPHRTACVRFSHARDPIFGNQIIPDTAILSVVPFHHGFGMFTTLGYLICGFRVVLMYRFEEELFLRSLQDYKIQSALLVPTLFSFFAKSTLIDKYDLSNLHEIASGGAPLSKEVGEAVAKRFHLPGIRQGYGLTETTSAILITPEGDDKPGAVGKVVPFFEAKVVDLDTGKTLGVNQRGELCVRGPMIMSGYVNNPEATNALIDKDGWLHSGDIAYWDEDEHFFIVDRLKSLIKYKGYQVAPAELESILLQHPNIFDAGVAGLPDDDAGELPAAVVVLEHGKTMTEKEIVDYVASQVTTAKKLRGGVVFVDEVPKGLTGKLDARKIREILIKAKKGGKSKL
A short description of assay [4]: Luminescence Cell-Based Dose Confirmation HTS to Identify Inhibitors of Platelet Dense Granule Release. [Related pubchem assays: 1663 (Primary HTS), 1678 (Summary of Project)]. It is filed as functional.
For assay [5], the target named is T2, Sentrin-specific protease 6 (Homo sapiens, UniProt Q9GZR1).
T2 sequence (Q9GZR1 whole entry): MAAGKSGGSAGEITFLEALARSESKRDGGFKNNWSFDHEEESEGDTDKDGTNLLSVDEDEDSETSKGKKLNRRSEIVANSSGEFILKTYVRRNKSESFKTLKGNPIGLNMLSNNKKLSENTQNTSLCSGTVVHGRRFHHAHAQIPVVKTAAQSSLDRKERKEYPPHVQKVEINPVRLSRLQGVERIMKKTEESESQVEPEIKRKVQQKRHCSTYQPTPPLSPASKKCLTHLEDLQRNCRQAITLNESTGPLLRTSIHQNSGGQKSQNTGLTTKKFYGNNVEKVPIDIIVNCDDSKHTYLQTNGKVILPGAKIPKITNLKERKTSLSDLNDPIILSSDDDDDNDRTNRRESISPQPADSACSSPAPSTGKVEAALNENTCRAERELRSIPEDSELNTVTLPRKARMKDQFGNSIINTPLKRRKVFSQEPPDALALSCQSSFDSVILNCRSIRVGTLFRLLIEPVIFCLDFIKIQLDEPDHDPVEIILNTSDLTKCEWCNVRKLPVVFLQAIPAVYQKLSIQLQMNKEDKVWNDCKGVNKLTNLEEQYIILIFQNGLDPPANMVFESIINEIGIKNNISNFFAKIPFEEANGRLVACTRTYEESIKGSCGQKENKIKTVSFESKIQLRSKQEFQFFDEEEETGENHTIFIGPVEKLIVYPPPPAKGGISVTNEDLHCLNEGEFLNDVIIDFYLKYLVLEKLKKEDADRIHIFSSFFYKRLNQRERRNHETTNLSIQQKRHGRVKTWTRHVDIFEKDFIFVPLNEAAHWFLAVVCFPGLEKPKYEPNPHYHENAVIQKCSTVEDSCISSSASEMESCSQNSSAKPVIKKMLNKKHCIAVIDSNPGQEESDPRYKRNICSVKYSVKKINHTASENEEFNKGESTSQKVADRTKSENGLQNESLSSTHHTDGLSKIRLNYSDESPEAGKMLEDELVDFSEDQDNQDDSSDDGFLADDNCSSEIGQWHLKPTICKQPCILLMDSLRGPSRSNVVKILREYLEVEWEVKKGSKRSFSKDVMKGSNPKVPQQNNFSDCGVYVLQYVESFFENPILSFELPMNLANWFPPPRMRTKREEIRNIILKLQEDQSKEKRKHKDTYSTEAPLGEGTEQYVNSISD
Briefly: SAR Analysis of small molecule inhibitors of Sentrin-specific protease 6 (SENP6) using a Luminescent assay. [Related pubchem assays (depositor defined):AID2582, AID2599]. Type of assay: functional.

The target in assay [6] is T3, Sentrin-specific protease 8 (Homo sapiens, UniProt Q96LD8).
T3 sequence (Q96LD8 whole entry): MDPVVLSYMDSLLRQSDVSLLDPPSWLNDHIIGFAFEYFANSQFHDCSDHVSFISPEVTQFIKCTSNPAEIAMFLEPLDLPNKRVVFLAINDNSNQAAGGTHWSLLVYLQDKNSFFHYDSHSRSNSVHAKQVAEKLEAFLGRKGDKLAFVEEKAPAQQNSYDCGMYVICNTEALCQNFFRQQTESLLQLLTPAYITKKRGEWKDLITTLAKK
Briefly: inhibition of human SENP8 cleavage activity – biochemical, luminescence, SAR follow-up (AID 504501). Type of assay: functional.

Assay [7] deals with T4, Sentrin-specific protease 7 (Homo sapiens, UniProt Q9BQF6).
T4 sequence (Q9BQF6 whole entry): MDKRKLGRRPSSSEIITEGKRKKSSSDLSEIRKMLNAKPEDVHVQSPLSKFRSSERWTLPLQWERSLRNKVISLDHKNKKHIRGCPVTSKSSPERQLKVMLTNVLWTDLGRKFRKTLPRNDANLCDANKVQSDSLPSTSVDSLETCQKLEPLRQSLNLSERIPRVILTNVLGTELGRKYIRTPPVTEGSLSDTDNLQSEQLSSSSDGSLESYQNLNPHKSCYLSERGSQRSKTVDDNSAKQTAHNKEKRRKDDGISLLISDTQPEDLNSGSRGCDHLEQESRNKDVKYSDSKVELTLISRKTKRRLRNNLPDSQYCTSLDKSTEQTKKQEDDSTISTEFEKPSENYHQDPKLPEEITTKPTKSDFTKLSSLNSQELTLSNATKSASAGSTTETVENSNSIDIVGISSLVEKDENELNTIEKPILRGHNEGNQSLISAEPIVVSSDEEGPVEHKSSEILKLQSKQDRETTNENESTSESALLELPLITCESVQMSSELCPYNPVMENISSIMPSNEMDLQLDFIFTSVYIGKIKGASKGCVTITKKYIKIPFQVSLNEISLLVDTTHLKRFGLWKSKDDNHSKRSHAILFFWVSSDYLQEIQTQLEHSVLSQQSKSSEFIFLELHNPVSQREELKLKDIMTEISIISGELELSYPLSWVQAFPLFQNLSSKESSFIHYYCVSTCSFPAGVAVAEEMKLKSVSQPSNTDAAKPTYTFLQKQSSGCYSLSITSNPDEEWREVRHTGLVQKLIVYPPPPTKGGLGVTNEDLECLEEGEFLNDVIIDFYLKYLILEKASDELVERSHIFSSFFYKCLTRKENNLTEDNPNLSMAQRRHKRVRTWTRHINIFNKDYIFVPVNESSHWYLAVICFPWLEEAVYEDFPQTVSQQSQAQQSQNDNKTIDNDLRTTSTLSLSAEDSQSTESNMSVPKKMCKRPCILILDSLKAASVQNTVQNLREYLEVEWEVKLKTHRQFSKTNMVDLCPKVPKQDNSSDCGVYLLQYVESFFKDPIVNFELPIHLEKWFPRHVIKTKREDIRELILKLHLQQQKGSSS
Briefly: inhibition of human SENP7 cleavage activity – biochemical, luminescence, SAR follow-up (AID 504497). Type of assay: functional.

In another assay the target is T5, Caspase-3 (Homo sapiens, UniProt P42574).
T5 sequence (P42574 whole entry): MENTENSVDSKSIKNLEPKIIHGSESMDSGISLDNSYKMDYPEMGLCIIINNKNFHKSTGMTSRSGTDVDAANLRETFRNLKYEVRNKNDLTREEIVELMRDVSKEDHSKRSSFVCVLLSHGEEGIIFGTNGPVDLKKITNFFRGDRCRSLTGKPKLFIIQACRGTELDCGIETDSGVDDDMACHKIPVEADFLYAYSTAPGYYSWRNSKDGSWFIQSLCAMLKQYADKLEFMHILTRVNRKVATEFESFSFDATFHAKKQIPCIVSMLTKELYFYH
In words: SAR Analysis of small molecule inhibitors of Sentrin-specific proteases (SENPs) using a Caspase-3 Selectivity assay. [Related pubchem assays (depositor defined):AID2540, AID2599, AID434973, AID489001]. It is filed as functional.

For assay [8], the target named is Serine/threonine-protein kinase Chk1 (Homo sapiens, UniProt O14757). Type of assay: functional.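 Note: measured as one member of a kinome-wide kinase profiling panel.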
Chain of Serine/threonine-protein kinase Chk1 (O14757 whole entry, the tested form may be a part): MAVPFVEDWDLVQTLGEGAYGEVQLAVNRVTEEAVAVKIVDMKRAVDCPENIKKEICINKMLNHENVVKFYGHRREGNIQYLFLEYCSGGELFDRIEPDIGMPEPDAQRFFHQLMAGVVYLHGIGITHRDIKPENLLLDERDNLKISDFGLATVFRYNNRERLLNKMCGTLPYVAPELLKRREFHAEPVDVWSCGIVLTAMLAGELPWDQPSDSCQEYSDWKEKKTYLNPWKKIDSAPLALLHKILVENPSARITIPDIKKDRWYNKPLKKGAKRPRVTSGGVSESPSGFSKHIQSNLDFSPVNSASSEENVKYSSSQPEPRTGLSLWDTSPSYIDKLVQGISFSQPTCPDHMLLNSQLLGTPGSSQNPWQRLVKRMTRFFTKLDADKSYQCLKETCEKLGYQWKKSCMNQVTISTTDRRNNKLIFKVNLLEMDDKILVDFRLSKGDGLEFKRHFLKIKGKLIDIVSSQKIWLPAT
The next assay has as its target LIM domain kinase 1 (Homo sapiens, UniProt P53667). Briefly: Navigating the Kinome. Panel member name: LIMK1. It is filed as functional.
Assay [9] has as its target T6, Serine/threonine-protein kinase Nek2 (Homo sapiens, UniProt P51955).
T6 sequence (P51955 whole entry): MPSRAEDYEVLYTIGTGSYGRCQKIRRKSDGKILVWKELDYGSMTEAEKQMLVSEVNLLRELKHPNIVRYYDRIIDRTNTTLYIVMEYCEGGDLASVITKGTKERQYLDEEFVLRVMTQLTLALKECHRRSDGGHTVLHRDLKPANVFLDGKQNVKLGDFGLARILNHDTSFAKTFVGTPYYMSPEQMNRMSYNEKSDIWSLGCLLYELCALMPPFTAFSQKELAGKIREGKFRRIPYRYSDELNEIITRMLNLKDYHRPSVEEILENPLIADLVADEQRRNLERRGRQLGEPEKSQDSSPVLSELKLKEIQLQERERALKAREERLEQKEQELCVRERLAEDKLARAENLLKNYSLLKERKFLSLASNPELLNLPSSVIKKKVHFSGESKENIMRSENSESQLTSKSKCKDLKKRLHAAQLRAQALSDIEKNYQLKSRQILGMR
Type of assay: functional.

Assay [10] addresses Cyclin-dependent kinase 8 (Homo sapiens, UniProt P49336). Briefly: Navigating the Kinome. Panel member name: CDK8. It is filed as functional.
Assay [11] addresses Melanin-concentrating hormone receptor 1 (Homo sapiens, UniProt Q99705). In words: Late-stage fluorescence-based counterscreen for antagonists of the G-protein coupled receptor 7 (GPR7): cell-based dose response assay to identify antagonists of the melanin-concentrating hormone receptor 1 (MCHR1) Set 5. Type of assay: functional. (Counterscreens check selectivity or assay interference.)

Chain of Cyclin-dependent kinase 8 (P49336 whole entry): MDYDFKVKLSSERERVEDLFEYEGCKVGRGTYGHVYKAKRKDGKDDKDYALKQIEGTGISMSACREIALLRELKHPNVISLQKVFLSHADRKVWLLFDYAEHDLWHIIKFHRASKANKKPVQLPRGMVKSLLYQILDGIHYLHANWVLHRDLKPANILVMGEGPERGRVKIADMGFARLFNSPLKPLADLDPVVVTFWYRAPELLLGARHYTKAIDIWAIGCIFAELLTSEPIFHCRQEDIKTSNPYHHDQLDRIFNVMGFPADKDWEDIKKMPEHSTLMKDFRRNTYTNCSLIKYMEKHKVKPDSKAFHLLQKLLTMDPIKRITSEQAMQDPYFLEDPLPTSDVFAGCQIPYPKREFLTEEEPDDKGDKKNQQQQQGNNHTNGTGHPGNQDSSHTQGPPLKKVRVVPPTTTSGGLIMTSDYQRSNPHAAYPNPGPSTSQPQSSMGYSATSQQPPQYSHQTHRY
Chain of Melanin-concentrating hormone receptor 1 (Q99705 whole entry): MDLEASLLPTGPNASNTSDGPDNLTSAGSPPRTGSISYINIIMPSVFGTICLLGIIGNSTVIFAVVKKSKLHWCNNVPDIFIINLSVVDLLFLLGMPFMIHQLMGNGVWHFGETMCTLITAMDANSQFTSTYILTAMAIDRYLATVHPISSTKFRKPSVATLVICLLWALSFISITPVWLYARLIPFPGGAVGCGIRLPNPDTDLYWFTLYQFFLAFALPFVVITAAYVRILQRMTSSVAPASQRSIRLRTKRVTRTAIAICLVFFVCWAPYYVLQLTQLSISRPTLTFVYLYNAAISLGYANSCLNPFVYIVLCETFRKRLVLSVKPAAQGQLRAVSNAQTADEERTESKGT
Chain of LIM domain kinase 1 (P53667 whole entry, the tested form may be a part): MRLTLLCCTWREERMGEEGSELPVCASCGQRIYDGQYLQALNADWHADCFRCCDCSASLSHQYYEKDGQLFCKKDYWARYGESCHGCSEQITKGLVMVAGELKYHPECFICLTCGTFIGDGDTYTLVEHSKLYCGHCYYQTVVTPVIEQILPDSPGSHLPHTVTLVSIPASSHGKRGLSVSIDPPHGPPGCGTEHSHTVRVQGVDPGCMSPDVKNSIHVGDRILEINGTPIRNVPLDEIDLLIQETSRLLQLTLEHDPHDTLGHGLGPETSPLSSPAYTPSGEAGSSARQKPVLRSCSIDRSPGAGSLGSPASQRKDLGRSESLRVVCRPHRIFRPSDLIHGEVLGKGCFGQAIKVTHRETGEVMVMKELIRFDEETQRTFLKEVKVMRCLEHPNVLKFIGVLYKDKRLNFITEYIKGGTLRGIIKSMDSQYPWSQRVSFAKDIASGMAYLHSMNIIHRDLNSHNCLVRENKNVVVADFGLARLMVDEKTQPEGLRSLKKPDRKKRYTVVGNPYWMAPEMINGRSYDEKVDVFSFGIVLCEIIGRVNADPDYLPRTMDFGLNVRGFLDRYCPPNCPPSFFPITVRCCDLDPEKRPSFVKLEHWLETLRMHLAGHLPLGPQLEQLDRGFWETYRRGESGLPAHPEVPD

For orientation: EC50 means the midpoint of the concentration-response curve. For orientation: IC50 means the point on the concentration scale where inhibition reaches its midpoint. For `COc1cc(C2C(C#N)=C(N)Oc3cc(N)ccc32)cc(OC)c1OC` (stereo not drawn), the EC50 in assay [1] is 13.5 µM (active). Further, in assay [2], the IC50 was > 80 µM (inactive).
On to `CC(Oc1ccccc1)C(=O)N(CCC1=CCCCC1)c1c(N)n(Cc2ccccc2)c(=O)[nH]c1=O` (stereo not drawn), for which the EC50 in assay [3] was > 112 µM (not active); in assay [4], > 112 µM (not active); in assay [1], 15 µM (active).
As to `Cc1c(C(=O)Nc2nc3ccccc3s2)oc2ccccc12`, the IC50 (in assay [5]; in assay [6]; in assay [7]; at Caspase-3) was > 99 µM (inactive) in each case.
For the compound `CCN(CC)S(=O)(=O)c1ccc(C(=O)Nc2nc3c(C)ccc(Cl)c3s2)cc1`, the IC50 (in [5]; in [6]; in assay [7]; on Caspase-3) was > 99 µM (inactive) throughout.
As usually defined, the Ki is a measure of affinity in units of concentration, obtained from inhibition or displacement. As to `O=S(=O)(Nc1ccc2ccccc2c1O)c1ccc(F)cc1`, the Ki is 3.16 µM (active) in assay [8], 2.51 µM (active) on LIM domain kinase 1, 3.16 µM (active) in [9] and 2.51 µM (active) in [10].
For `CCOc1cccc(Oc2c(Cl)cnn(Cc3cccc4ccccc34)c2=O)c1`, the IC50 in assay [11] was 18.8 µM (inactive).
